Data on one compound can be found in patent publication US7598419B2, “Compounds for modulating cell proliferation” (HSC Research and Development Limited Partnership, priority 2004, dated 2009).

Structures are written as SMILES.

Data set [1] deals with OCI-AML-3 acute myeloid leukemia cells. Put plainly: Colony assay of OCI-AML-3 cells in culture. The data set is classed as cell-based. As to conditions: colonies at 5-6 days; FIG. 4. As for the experimental part:
OCI-AML-3 cells were plated in 35 mm petri dishes (Nunc, Gibco) in 1 ml volumes at a density of 3.3×10^3 cells/ml, in the absence of exogenous growth factors, containing alpha MEM plus 20% FCS (Cansera, Rexdale Ont.), and 0.9% (vol/vol) methylcellulose (Fluka, Switzerland) and the indicated concentrations of CR4. Cell cultures were incubated in a humidified atmosphere at 37° C. with 5% CO2. Colonies containing more than 20 cells were scored, using an inverted microscope, at 5-6 days.

Data set [2] has the same test system. Put plainly: In vitro purging of OCI-AML-3 cells. The data set is classed as cell-based. As to conditions: 2.5-5 hours exposure, FIG. 17. As for the experimental part:
For the purging assay, the cells were resuspended in complete medium with or without CR4 as indicated and incubated at 37° C., 5% CO2 for 0-5 hours. Cells were then washed thoroughly with medium to remove CR4, resuspended and plated in 1 ml volumes at 5×10^3 cells/ml, in the absence of exogenous growth factors, into 35 mm petri dishes (Nunc, Gibco) containing alpha MEM (Gibco) plus 10% FCS (Cansera Rexdale, ON.) in 0.9% (vol/vol) methylcellulose (Fluka, Switzerland). Cultures were set at 37° C., 5% CO2 in a humidified atmosphere. Colonies consisting of more than 20 cells were counted at 5 days or earlier using an inverted microscope.

Data set [3] concerns HuNS1 multiple myeloma cells. Put plainly: Colony assay of HuNS1 cells in culture. The class given is cell-based. Particulars: colonies at 5-6 days, FIG. 19, read-out: inhibition of HuNS1 cell proliferation and survival. As for the experimental part: HuNS1 cells were plated in 35 mm petri dishes (Nunc, Gibco) in 1 ml volumes at a density of 1×10^4 cells/ml, in the absence of exogenous growth factors, containing alpha MEM plus 20% FCS (Cansera, Rexdale Ont.), and 0.9% (vol/vol) methylcellulose (Fluka, Switzerland) and the indicated concentrations of CR4. Cell cultures were incubated in a humidified atmosphere at 37° C. with 5% CO2. Colonies containing more than 20 cells were scored, using an inverted microscope, at 5-6 days.

Data set [4] relates to Philadelphia positive ALL, AML and lymphoma. Put plainly: High dose ex vivo / in vitro purging assays (summary). The class given is cell-based.
The subject of the next data set is normal bone marrow cells. Description: CFU-GEMM assay: normal bone marrow differentiation in culture. The data set is classed as cell-based, human. How it is done: (§1) The CFU-GEMM assay was performed according to Fauser and Messner (1978, Blood, 52(6) 143-8) and Messner and Fausser (1980, Blut, 41(5) 327-33) with some variations. In brief, heparinized bone marrow cells were layered over Percoll (1.077 gm/ml) (Pharmacia Fine Chemical, Piscataway N.J.) and centrifuged at 400 g at 4° C. for 10 minutes to remove neutrophils and RBCs. The fractionated BM cells at 2×10^5 cells/ml were cultured in IMDM (OCI, Toronto) containing 0.9% (vol/vol) methylcellulose supplementd with 30% FCS (Cansera Rexdale, ON.) or normal human plasma, a cocktail of cytokines containing G-CSF (10 ng/ml, Amgen), IL-3 (40 U/ml, Immunex), MGF (50 ng/ml, Immunex), Erythropoietin (2 u/ml, Epprex) or TPO (10 ng/ml, Amgen), 5×10^−5M β-2-mercaptoethanol and the specified concentration of CR4. The culture mixture was plated in 1 ml volumes into 35 mm petri dishes and incubated at 37° C., 5% CO2 in a humidified atmosphere. All cultures were evaluated at 14 days for the number of BFU-E colonies (defined as aggregates of more than 500 hemoglobinized cells or, 3 or more erythroid subcolonies), CFU-GM colonies (defined as granulocyte or monocyte-macrophage cells or both), CFU-Meg colonies (comprising 4 or more megakaryocytes) and CFU-GEMM colonies (a mixed population comprising of all elements).
as §1, with “1243-8)” for “143-8)”, “concentrations” for “concentration”, “CR19.” for “CR4.”, “hemaglobinized” for “hemoglobinized”, “subcolonies) and CFU-C” for “subcolonies), CFU-GM”, “both).” for “both), CFU-Meg colonies (comprising 4 or more megakaryocytes) and CFU-GEMM colonies (a mixed population comprising of all elements).”
as §1, with “1243-8)” for “143-8)”, “variations (British Journal of Haematology, 1992, 80, p 40-48).” for “variations.”, “test compound.” for “CR4.”, “CO2,” for “CO2”, “subcolonies) and CFU-C” for “subcolonies), CFU-GM”, “both).” for “both), CFU-Meg colonies (comprising 4 or more megakaryocytes) and CFU-GEMM colonies (a mixed population comprising of all elements).”

In the case of `N#C/C(=C\C=C\c1ccc(O)c(O)c1)C(=O)NCc1ccccc1` [CR4, (E,E)-2-(Benzylaminocarbonyl)-3-(3,4-dihydroxystyryl)acrylonitrile], the “concentrations effecting complete inhibition of AML-3 cell proliferation and survival” value in data set [1] was in the range of 300 to 600 nM. The “killing of OCI-AML-3 cells after purging” value in data set [2] (25 μM) was “significant killing”. Moreover, the “killing of OCI-AML-3 cells after purging” value in data set [2] (50 μM) was “significant killing”. Also, the inhibition at 2.5 µM in data set [3] was above 90%. In addition, the “effectiveness as ex vivo purging agents” value in data set [4] was “effective”. In addition, in data set [4] (25-50 μM, 2.5 to 5 hour exposure time), the “inhibition of growth in in vitro purging assays” value was above 90%. For the same compound, in the data set on normal bone marrow cells (10 μM, 14 days, FIG. 1), the BFU-E colony formation result is listed as “some inhibition” and the CFU-GM colony numbers result is given as “significantly stimulated”. In the data set on normal bone marrow cells (concentrations equivalent to those inhibiting the cancer cells of the same example), the “effect upon normal cells at equivalent concentrations” value is “no effect”. Moreover, in the data set with normal bone marrow cells (doses up to 5 μM, colonies at 14 days, FIG. 1), the “toxicity upon normal bone marrow” value is reported as “negligible toxicity”. In addition, the “normal cell growth and differentiation” value in the data set with normal bone marrow cells (low nanomolar doses, long term exposure) is “unaffected”. Besides, the “concentrations until which minimal toxicity was seen in normal cells” value with normal bone marrow cells (normal cells incubated in the presence of compound) fell in the range of 10 to 20 µM.
